Source: patent US12678488B2, “Batch management method for improving farrowing rate or number of piglets born alive in swine” (priority 2024, dated 2026)
“Also recorded” adds a separate entry of the source.

What was measured:
[1] = test system: ENPP2, LPAR3 and PTGS2 mRNA (LPA signalling pathway) in the uterus; test: Quantitative PCR of key molecules in the LPA signalling pathway in gilt uteri (Example 4); format: in vivo, pigs; conditions: gilts, 12 μg/kg·BW
Experimental: The gilts in the batch farrowing with FTAI and the gilts in the batch farrowing with FTAI supplementing once with 1-[bis(4-cyanophenyl)methyl]-1,2,4-triazole (12 μg/kg·BW) were slaughtered. The gilts were slaughtered 16 days after mating, with 4 gilts slaughtered per group. By judging the number of corpora lutea on the ovary, the number of ovulated oocytes (each corpus luteum represented an ovulation point) was confirmed.
Uteri were isolated from the gilts for RNA extraction, reverse transcription and quantitative PCR detection of several key molecules in the LPA signalling pathway, i.e., detection of ENPP2 (a gene for the expression of ATX, the key enzyme of LPA synthesis), LPAR3 (LPA receptor gene), and PTGS2 (a key gene downstream of LPAR).

estradiol = test: Peripheral blood estradiol level in gilts after insemination by radioimmunoassay (Example 4); format: in vivo, pigs; conditions: once low-dose 12-20 μg/kg·BW, day 2-day 16 after mating
Experimental: The breed of the gilts used in this experiment was Landrace x Large White binary sows, the gilts were randomly divided into the following 3 groups, and the treatment method for each group was as follows:
batch farrowing with FTAI: the gilts were fed with an altrenogest oral solution at 20 mg/gilt at the same time every day, for 18 days; PMSG at 1000 IU/gilt was injected intramuscularly 42 h after the last feeding with altrenogest, GnRH at 100 μg/gilt was injected intramuscularly after another 80 h, the first timed insemination was performed 24 h after the injection of GnRH, and the second timed insemination was performed after 24 h. […]
Peripheral blood was collected from the gilts in the batch farrowing with FTAI and the batch farrowing with FTAI with supplementing with a single low dose of 1-[bis(4-cyanophenyl)methyl]-1,2,4-triazole at different times after mating, i.e., days 2, 4, 10 12, and 16 after mating, blood was collected from the anterior vena cava of the gilts and centrifuged, the supernatant was taken, stored at −20° C., and then detected for estradiol level by radioimmunoassay.
The detection steps were as follows: 12×75 mm disposable tubes were arranged on a tube rack, and were a total radioactivity counting (tc) tube, a non-specific binding (NSB) tube, a zero standard (0) tube, standard tubes, and sample tubes, respectively. […]

SMILES: N#Cc1ccc(C(c2ccc(C#N)cc2)n2cncn2)cc1 [1-[bis(4-cyanophenyl)methyl]-1,2,4-triazole]
- Enpp2, Lpar3 and ptgs2 mRNA levels in the uteri ([1]; compared with batch farrowing with FTAI group): significantly higher
- Enpp2, Lpar3 and ptgs2 mRNA levels in the uteri ([1]; compared with natural estrus group): no significant difference
- blood estradiol (estrogen) level after mating (estradiol): no obvious change; also recorded: no significant effect
